# Columns and labels:
# [1] = tested on: Phakopsora pachyrhizi (F129L); test: Protective control of soybean rust on soybeans (PHAKPA P2); format: in vivo; conditions: for % PHAKPA (F129L) Disease level P2 at 4 ppm: protective P2, 4 ppm; for % PHAKPA (F129L) Disease level P2 at 16 ppm: protective P2, 16 ppm
# [2] = tested on: Phakopsora pachyrhizi (F129L); test: Protective control of soybean rust on soybeans (PHAKPA P6); format: in vivo; conditions: for % PHAKPA (F129L) Disease level P6 at 4 ppm: protective P6, 4 ppm; for % PHAKPA (F129L) Disease level P6 at 16 ppm: protective P6, 16 ppm
SMILES,% PHAKPA (F129L) Disease level P2 at 4 ppm ([1]; soybean rust F129L isolate),% PHAKPA (F129L) Disease level P2 at 16 ppm ([1]; soybean rust F129L isolate),% PHAKPA (F129L) Disease level P6 at 4 ppm ([2]; soybean rust F129L isolate),% PHAKPA (F129L) Disease level P6 at 16 ppm ([2]; soybean rust F129L isolate),% PHAKPA (F129L) Disease level P2 at 4 ppm ([1]; F129L isolate),% PHAKPA (F129L) Disease level P2 at 16 ppm ([1]; F129L isolate),% PHAKPA (F129L) Disease level P6 at 4 ppm ([2]; F129L isolate),% PHAKPA (F129L) Disease level P6 at 16 ppm ([2]; F129L isolate)
CNC(=O)/C(=N/OC)c1cccc(C)c1CO/N=C(\C)c1ccc(OC)cc1OC(F)(F)F [compound 337],9%,0%,13%,1%,,,,
CNC(=O)/C(=N/OC)c1cccc(C)c1CO/N=C(\C)c1ccc(C)cc1OC(F)(F)F [compound 340],23%,4%,42%,7%,,,,
CNC(=O)/C(=N/OC)c1cccc(C)c1CO/N=C(\C)c1c(F)cc(F)cc1OC(F)(F)F [compound 344],6%,0%,16%,0%,,,,
CNC(=O)/C(=N/OC)c1cccc(C)c1CO/N=C(\C)c1c(F)cccc1C(F)(F)F [compound 345],22%,1%,32%,1%,,,,
CNC(=O)/C(=N/OC)c1cccc(C)c1CO/N=C(\C)c1c(F)ccc(F)c1OC(F)(F)F [compound 346],4%,0%,5%,0%,,,,
CNC(=O)/C(=N/OC)c1cccc(C)c1CO/N=C(\C)c1ccc(OC(F)(F)F)cc1OC(F)(F)F [compound 349],97%,50%,97%,35%,,,,
CNC(=O)/C(=N/OC)c1cccc(C)c1CO/N=C(\C)c1cccc(F)c1OC(F)(F)F [compound 354],17%,2%,21%,4%,,,,
CNC(=O)/C(=N/OC)c1cccc(C)c1CO/N=C(\C)c1c(F)cc(Br)cc1OC(F)(F)F [compound 355],34%,7%,48%,4%,,,,
CNC(=O)/C(=N/OC)c1cccc(C)c1CO/N=C(\C)c1c(F)cc(F)cc1C(F)(F)F [compound 357],13%,1%,18%,0%,,,,
CNC(=O)/C(=N/OC)c1cccc(C)c1CO/N=C(\C)c1c(F)cc(Br)cc1C(F)(F)F [compound 358],77%,17%,83%,18%,,,,
CNC(=O)/C(=N/OC)c1cccc(C)c1CO/N=C(\C)c1c(F)ccc(F)c1C(F)(F)F [compound 359],100%,37%,100%,43%,,,,
CO/N=C(/C(=O)OC)c1cccc(C)c1CO/N=C(\C)c1c(F)cc(F)cc1C(F)(F)F [compound 360],53%,9%,80%,5%,,,,
CO/N=C(/C(=O)OC)c1cccc(C)c1CO/N=C(\C)c1c(F)cc(F)cc1OC(F)(F)F [compound 361],80%,18%,88%,31%,,,,
CNC(=O)/C(=N/OC)c1cccc(C)c1CO/N=C(\C)c1ccc(OC(F)(F)F)cc1C(F)(F)F [compound 363],29%,1%,25%,2%,,,,
CO/N=C(/C(=O)OC)c1cccc(C)c1CO/N=C(\C)c1c(F)cccc1C(F)(F)F [compound 365],77%,15%,97%,43%,,,,
CO/N=C(/C(=O)OC)c1cccc(C)c1CO/N=C(\C)c1c(F)ccc(F)c1OC(F)(F)F [compound 366],53%,13%,83%,12%,,,,
CO/N=C(/C(=O)OC)c1cccc(C)c1CO/N=C(\C)c1c(F)cc(Br)cc1C(F)(F)F [compound 368],83%,47%,90%,73%,,,,
CNC(=O)/C(=N/OC)c1cccc(C)c1CO/N=C(\C)c1ccccc1C(C)(F)F [compound 372],85%,26%,85%,16%,,,,
CO/N=C(/C(=O)OC)c1cccc(C)c1CO/N=C(\C)c1ccc(OC)cc1OC(F)(F)F [compound 373],77%,27%,100%,38%,,,,
CNC(=O)/C(=N/OC)c1cccc(C)c1CO/N=C(\C)c1ccc(Cl)cc1OC(F)(F)F [compound 375],47%,8%,40%,6%,,,,
CNC(=O)/C(=N/OC)c1cccc(C)c1CO/N=C(\C)c1ccc(F)cc1OC(F)(F)F [compound 378],18%,1%,17%,1%,,,,
CNC(=O)/C(=N/OC)c1cccc(C)c1CO/N=C(\CC(F)(F)F)c1ccccc1 [compound 380],,,,,53%,5%,60%,12%
CCC/C(=N\OCc1c(C)cccc1/C(=N\OC)C(=O)OC)c1ccccc1 [compound 387],,,,,60%,30%,80%,47%
CCC/C(=N\OCc1c(C)cccc1/C(=N\OC)C(=O)NC)c1ccccc1 [compound 388],,,,,1%,0%,3%,0%
CNC(=O)/C(=N/OC)c1cccc(C)c1CO/N=C(/c1ccccc1)C(C)C [compound 389],,,,,28%,4%,43%,3%
CO/C=C(/C(=O)OC)c1cccc(C)c1CO/N=C(\C)c1c(F)cccc1C(F)(F)F [compound 390],,,,,22%,0%,18%,2%
CNC(=O)/C(=N/OC)c1cccc(C)c1CO/N=C(\CC(F)(F)F)c1ccccc1C [compound 393],,,,,93%,55%,93%,42%
CNC(=O)/C(=N/OC)c1cccc(C)c1CO/N=C(\C)c1ccc(F)cc1CC(F)(F)F [compound 394],,,,,9%,3%,12%,2%
CO/N=C(/C(=O)OC)c1cccc(Br)c1CO/N=C(\C)c1ccccc1 [compound 395],,,,,43%,4%,67%,18%
CNC(=O)/C(=N/OC)c1cccc(Br)c1CO/N=C(\C)c1ccccc1 [compound 396],,,,,3%,0%,4%,0%

# — US20230172206A1 (BASF SE, priority 2020, published 2023)
